Measurements as given in patent publication US7884115B2, “Methods and compositions for the treatment of pain and other neurological conditions” (Allergan, Inc., priority 2004, dated 2011).
“Also recorded” adds a separate entry of the source.

Legend:
[1] = test system: allodynia induced by sulprostone; assay: Mouse sulprostone model of allodynia; format: in vivo; conditions: for attenuation of the allodynic response (analgesic activity): up to 1 mg/kg, 15 min before sulprostone 300 ng/kg IP, FIG. 3
Method: In this alternative model of chronic pain, allodynia can be induced in mice through intraperitoneal treatment of the animals with 300 ng/kg sulprostone (prostaglandin E2 receptor agonist) in 50% DMSO and in a volume of 5 μl. In this model, the pain response to stroking the flank with a paint brush is scored 8 times over a 35 minute period starting 15 minutes following spinal administration of sulprostone. Minami et al., 57 Pain 217-223 (1994), hereby incorporated by reference herein. Sulprostone treatment alone elicits a score of 12-13 on a 16-point scale.
In either model, the compounds are formulated in d-H2O and given in a volume of 1 ml/kg body weight for intraperitoneal (IP) dosing.
Six mice per group are rendered allodynic by injection of one of the following agents: 300 ng/kg sulprostone in DMSO IP, 100 ng/kg phenylephrine (PE) in dH2O IP, or 100 ng NMDA in DMSO intrathecally (IT). Fifteen minutes before administration of the allodynia-inducing agents, the experimental mice are given 1 mg/kg NB-DNJ. Thirty (30) minutes following administration of NB-DNJ, the allodynic response is monitored as described by brushing the flank of each mouse with a paint brush.
Five to six mice per group are rendered allodynic by injection of 300 ng/kg sulprostone IP. Fifteen minutes before inducement of an allodynic response, experimental mice are given one of the following: 1 mg/kg, 300 μg/kg, and 100 μg/kg NB-DNJ; 1 mg/kg N-butyldeoxymannojirimycin; 1 mg/kg N-5-carboxy-1-deoxynojirimycin; 1 mg/kg N-dodecyldeoxynojirimycin; 1 mg/kg N-ethyl-1-deoxynojirimycin; 1 mg/kg, 300 μg/kg, and 30 μg/kg D-glucaro-delta-lactam; 1 mg/kg 4-O-a-D-glucopyranosylmoranoline; 1 mg/kg nojirimycin bisulfite; 1 mg/kg nojirimycin-1-sulfonic acid; 1 mg/kg N-(n-nonyl)deoxynojirimycin; 1 mg/kg N(7-oxadecyl)deoxynojirimycin; and 1 mg/kg N-(7-oxa-9,9,9-trifluorononyl)deoxynojirimycin. The DMSO vehicle and sulprostone alone are used as controls.
Starting thirty (30) minutes following administration of NB-DNJ, the allodynic response of each mouse was monitored by brushing the flank of the mouse with a paint brush.
Five to six mice per group are rendered allodynic by injection of one of the following: 300 ng/kg sulprostone IP, 100 ng/kg phenylephrine (PE) IP, or 100 ng NMDA intrathecally (IT). Fifteen minutes prior to the induction of allodynia, the mice are given D-glucaro-delta-lactam IP at […], or 1 mg/kg. PE or NMDA-treated mice are given 1 mg/kg D-glucaro-delta-lactam IP.

[2] = cited from earlier work
[3] = test system: primary rat brain cortical neurons treated with NMDA plus D-serine; assay: NMDA/serine-induced excitotoxicity in primary cortical neurons (LDH release); format: cell-based; conditions: 20 μM NMDA plus 10 μM D-serine, 3 h or 16 h preincubation; FIGS. 8A and 8B
Method: (§1) Primary rat brain cortical neurons were cultured as follows. In brief, rat cerebral cortices were removed from brains of the 16 day-old-fetal rats. The neocortices were gently triturated and plated on 24 well plates (300,000 viable cells/cm2) in plating Modified Eagle's Medium (MEM) supplemented with 10% horse serum, 10% fetal calf serum and 2 mM L-glutamine. Cultures were maintained at 37 C in a humidified 5% CO2 atmosphere.
After 4 days' growth (DIV 4), half of the medium was replaced by a medium identical to the plating medium but lacking calf serum. At DIV4, 10 μM 5-fluoro-2-deoxyuridine was included to each well to halt overgrowth of glia. Mixed cultures of neurons and glia were then fed at DIV7 and DIV11 with MEM plus 5% horse serum previously conditioned by growth with cortical astrocytes for 24 h. […]
(§2) Under the experimental conditions used, i.e. after 6 hours addition of excitotoxic agent, 40% toxicity is generally observed and measured by determination of the amount of lactate dehydrogenase (LDH) released into the medium following membrane degradation. […] Overall cell injury was assessed microscopically under phase-contrast optics or by measuring amount of LDH released into the bathing medium 24 hr after neurotoxic insults (see, e.g., Koh and Choi, J. NEUROSCI. METHODS 20: 83-90, 1987), hereby incorporated by reference herein. […]

[4] = test system: primary rat brain cortical neurons treated with kainate; assay: Kainate-induced excitotoxicity in primary cortical neurons (LDH release); format: cell-based
Method: as §1
(§3) After 4 days' growth (DIV 4), half of the medium was replaced by a medium identical to the plating medium but lacking calf serum. At DIV4, 10 μM 5-fluoro-2-deoxyuridine was included to each well to halt overgrowth of glia. Mixed cultures of neurons and glia were then fed at DIV7 and DIV11 with MEM plus 5% horse serum previously conditioned by growth with cortical astrocytes for 24 h.
Excitotoxicity was induced in these cells by addition of 50 μM kainate or 20 μM N-methyl-D-aspartate plus 10 μM D-serine to each well.
Under the experimental conditions used, i.e. after 6 hours addition of excitotoxic agent, 40% toxicity is generally observed and measured by determination of the amount of lactate dehydrogenase (LDH) released into the medium following membrane degradation. Such assay methods are well-known; a kit for conducting a homogeneous form of the LDH assay format is sold by Promega under the name CytoTox ONE® Homogenous Membrane Integrity Assay. Overall cell injury was assessed microscopically under phase-contrast optics or by measuring amount of LDH released into the bathing medium 24 hr after neurotoxic insults (see, e.g., Koh and Choi, J. NEUROSCI. METHODS 20: 83-90, 1987), hereby incorporated by reference herein.
[…] The final results are normalized optical density (OD) values (treated cells/untreated control cells), where a value of 1 represents 100% neuronal survival and a value of 0.6 represents 60% survival.

[5] = test system: primary rat brain cortical neurons; assay: Intrinsic cytotoxicity in neuronal cultures; format: cell-based
Method: as §1, §3, §2

Row | SMILES | attenuation of the allodynic response (analgesic activity) [1] | aqueous solubility [2] | reversal of the allodynic response ([1]; 1 mg/kg given 15 min before sulprostone 300 ng/kg IP, FIG. 1) | neuronal death [3] | attenuation of kainate-induced excitotoxicity ([4]; 50 μM kainate, compound added without pre-incubation, FIG. 7A) | neuronal death ([4]; kainate-induced toxicity, various concentrations) | intrinsic cytotoxicity [5]
1 | O=C(O)[C@H]1NC(=O)[C@H](O)[C@@H](O)[C@@H]1O [D-glucaro-delta-lactam] | attenuate the allodynic response | – | – | – | – | – | –
2 | CCCCN1C[C@H](O)[C@@H](O)[C@H](O)[C@H]1CO [NB-DNJ, N-butyl-1-deoxy-nojirimycin] | attenuate the allodynic response | greater than 1000 mg/ml | significant reversal | reduced neuronal death in a dose-dependent manner | attenuation of kainate-induced excitotoxicity; also recorded: active without any preincubation | reduced neuronal death in a dose-dependent manner | do not show any significant intrinsic cytotoxicity
